Reference: patent US10799442B2, “Compounds useful in the treatment and/or care of the skin, hair, nails, and/or mucous membranes” (LUBRIZOL ADVANCED MATERIALS, INC., priority 2015, dated 2020)

Assays:
human miRNA145 = experiment: miRNA145 inhibition on Human Keratinocyte HaCaT cell line, direct quantification by luminescence; type: cell-based; conditions: HaCaT cells, 0.3 mg/ml, 24 hours, normalized with Snord48; mean of 3 experiments for DD14024, one experiment for the others
Method: The synthetic peptide candidates are evaluated for the inhibition of human miRNA145 expression level using a direct miRNA145 quantification assay based on luminescence detection in a Human Keratinocyte HaCaT cell line.
HaCat cells (Deutsches Krebsforschungszentrum) are seeded at 3.0×10^4 cells/well in 96-clear wells plates and incubated in a culture medium [(DMEM High Glucose with L-Glutamine (Lonza), supplemented with 10% Fetal Bovine Serum (Cultek)] for 24 hours at 37° C. in a water-saturated atmosphere of 95% air and 5% CO2. Then, the cells with the candidates added at 0.3 mg/ml in the culture medium are treated for 24 hours at 37° C., 95% air and 5% CO2. Cells with culture medium only are treated to the same conditions to provide basal conditions. Each cell culture condition is assayed at least in 6 biological replicates. At the end of the incubation period, the cells are lysed and the relative miRNA145 expression level is quantified by a specific assay kit (QuantiGene™ 2.0 miRNA Assay Kit) following manufacturer's instructions (Affymetrix). Briefly, to capture miRNA145, culture lysates are incubated overnight at 46±1° C. in 96-white well plates with the miRNA145 specific probe set (Capture extenders and Label extenders). As an endogenous expression control, the housekeeping Snord48 is quantified using a specific probe set. Next day, the signal amplification tree is built via sequential hybridization at 46±1° C. of three probes: PreAmplifier, Amplifier and Alkaline Phosphatase Label Probe. Then, the signal is detected by adding a chemiluminescent substrate and using a Microplate Luminometer Reader (Clariostar-BMG LabTech).
The miRNA145 expression level result is normalized with the Snord48 expression level for each cell culture condition and the relative decrease in the miRNA145 expression level is calculated respect to basal control (cells treated with culture medium only). The values represent the mean of 3 independent experiments for DD14024, and for the other candidates, represent the result of one experiment.

SOX2 = experiment: Modulation of stem cell markers in HEKa, Real Time PCR Arrays (SOX2 mRNA); type: cell-based, Human; conditions: 48 hours
Method: The candidate compound is evaluated for the modulation of several stem cell markers, those transcription factors regulated by miRNA145 (SOX2, OCT4, KLF4 and MYC). Gene expression profiles are analyzed by Real Time PCR Arrays using a 96-well panel for use with SYBR® Green (BioRad) to detect mRNA expression levels of stem cell markers plus three housekeeping genes, and five controls, in Human Epidermal Keratinocytes from adult (HEKa) (Cascade Biologics).
HEKa cells are seeded at 6.0×10^5 cells/well in 6-well plates and incubated in culture medium, Epilife with defined Growth Supplement (EDGS) (Cascade Biologics), for 24 hours at 37° C. in a water-saturated atmosphere of 95% air and 5% CO2. After 24 hours, the medium is removed and the cells are incubated with the synthetic peptide DD14024 at several concentrations in a culture medium. Cells are incubated with culture medium only and these provide the basal conditions. After 48 hours of treatment at 37° C. in a CO2 incubator, the cells are lysed directly in the wells, and RNA is purified following the protocol described on the RNeasy Mini kit (Qiagen) according to the manufacturer's protocol. After RNA elution, quantification and analysis of purity of RNA samples are performed with a biophotometer (Eppendorf). For each sample, 2 μg of high quality RNA is retrotranscribed with iScript Advanced (BioRad) in a final volume of 20 μl. The complete reaction mix is incubated in a thermal cycler (Eppendorf) at 42° C. for 30 minutes and the reaction is stopped at 85° C. for 5 minutes (?). Complementary DNA is amplified by qPCR in a real-time PCR thermocycler (BioRad) using SYBR Green Supermix (BioRad) in the 96-well panel for use with SYBR® Green (BioRad). SYBR Green binds to double-stranded DNA molecules and emits fluorescence which is quantified; the fluorescence intensity is proportional to the amount of the product in the PCR reaction. […] Fold change relative to the expression of the sample genes and reference genes is calculated using normalized expression (ΔΔ(Ct)) method using CFX Manager Software (BioRad). […]

Fold induction respect to basal conditions (SOX2; 0.001 mg/ml): 1.62 ± 0.18
Fold induction respect to basal conditions (SOX2; 0.005 mg/ml): 3.00 ± 0.55
Fold induction respect to basal conditions (SOX2; 0.01 mg/ml): 2.81 ± 0.26
Substance: Ac-QEMRMQ-OH [DD14024, Ac-Gln-Glu-Met-Arg-Met-Gln-OH]
Relative level of miRNA145 respect to basal control (%) (human miRNA145): 85.06 ± 6.35%
